Data: ChEMBL document CHEMBL5241114, “A comprehensive review of BET-targeting PROTACs for cancer therapy” (Bioorg Med Chem, 2022)
One block for each compound: values may come before it.

Tests used:
MCF7 [1] = assay: Antitumor activity against human MCF7 cells xenografted in mouse assessed as tumor growth inhibition; assay type: functional
[2] = target: T1, Bromodomain-containing protein 4 (Homo sapiens, UniProt O60885); assay: Induction of BRD4 degradation in human MCF7 cells incubated for 72 hrs by Western blot analysis; assay type: cell-based
[3] = target: T1, Bromodomain-containing protein 4; assay: Induction of BRD4 degradation in human MCF7 cells incubated for 72 hrs by Western blot analysis relative to control; assay type: cell-based
[4] = Cytotoxicity against human MCF10 cells assessed as measuring cell viability incubated for 48 hrs by CCK-8 assay; assay type: toxicity, cell-based
MCF7 [5] = assay: Cytotoxicity against human MCF7 cells assessed as measuring cell viability incubated for 48 hrs by CCK-8 assay; assay type: toxicity, cell-based; conditions: MCF7, 48 h
[6] = target: T1, Bromodomain-containing protein 4; assay: Induction of degradation of BRD4 (unknown origin)
MM1.S = assay: Antiproliferative activity against human MM1.S cells assessed as inhibition of cell growth; assay type: functional, cell-based
MV4-11 = assay: Antiproliferative activity against human MV4-11 cells assessed as inhibition of cell growth; assay type: functional, cell-based
MDA-MB-468 = assay: Antiproliferative activity against human MDA-MB-468 cells assessed as inhibition of cell growth; assay type: functional, cell-based
[7] = Half life of the compound in DMSO; assay type: physicochemical
[8] = target: T1, Bromodomain-containing protein 4; assay: Induction of BRD4 degradation in human HEK293T cells; assay type: cell-based
[9] = target: T1, Bromodomain-containing protein 4; assay: Induction of BRD4 degradation in human HEK293T cells at 10 uM measured at 6 hrs relative to control; assay type: cell-based
[10] = target: T1, Bromodomain-containing protein 4; assay: Induction of BRD4 degradation in human HEK293T cells at 20 uM relative to control; assay type: cell-based
BXPC-3 = assay: Antiproliferative activity against human BXPC-3 cells assessed as inhibition of cell growth incubated for 72 hrs by MTT assay; assay type: functional, cell-based; conditions: BXPC-3, 72 h
Caspase-3/Caspase-7 = target: T2, Caspase-3/Caspase-7 (Homo sapiens, UniProt P42574+P55210); assay: Activation of caspase 3/7 in human 22Rv1 cells by Caspase-Glo reagent based analysis; assay type: cell-based
T2 sequence (P42574 whole entry): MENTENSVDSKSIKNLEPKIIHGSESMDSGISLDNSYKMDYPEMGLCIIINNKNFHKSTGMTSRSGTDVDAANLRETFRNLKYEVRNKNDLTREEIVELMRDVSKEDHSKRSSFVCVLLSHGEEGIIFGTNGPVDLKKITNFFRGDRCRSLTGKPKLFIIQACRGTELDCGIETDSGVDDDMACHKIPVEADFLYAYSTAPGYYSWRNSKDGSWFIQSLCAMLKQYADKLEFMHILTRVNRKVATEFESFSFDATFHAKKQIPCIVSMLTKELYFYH
T2 sequence (P55210 whole entry): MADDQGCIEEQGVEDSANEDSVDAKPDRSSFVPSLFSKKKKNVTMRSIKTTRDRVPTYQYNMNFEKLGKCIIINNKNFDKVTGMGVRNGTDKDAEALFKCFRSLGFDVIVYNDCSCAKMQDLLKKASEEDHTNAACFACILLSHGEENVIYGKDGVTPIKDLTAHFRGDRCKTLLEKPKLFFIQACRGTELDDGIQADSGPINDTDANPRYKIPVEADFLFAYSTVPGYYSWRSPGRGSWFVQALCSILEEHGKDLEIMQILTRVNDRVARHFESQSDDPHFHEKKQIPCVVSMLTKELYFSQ

CWR22R = assay: Antitumor activity against human 22Rv1 cells xenografted in Nu/Nu mouse assessed as tumor growth inhibition at 30 mg/kg, sc; assay type: functional; conditions: read-out: TGI
[11] = target: T1, Bromodomain-containing protein 4; assay: Induction of BRD4 degradation in human 231MFP cells at 10 uM incubated for 60 mins by Western blot analysis relative to control; assay type: cell-based
[12] = target: T1, Bromodomain-containing protein 4; assay: Induction of BRD4 degradation in human EOL1 cells relative to control; assay type: cell-based
[13] = target: T1, Bromodomain-containing protein 4; assay: Induction of BRD4 degradation in human EOL1 cells; assay type: cell-based
EOL1 = assay: Antiproliferative activity against human EOL1 cells assessed as inhibition of cell growth; assay type: functional, cell-based
HL-60 = assay: Antiproliferative activity against human HL-60 cells assessed as inhibition of cell growth; assay type: functional, cell-based

DC50 [6]: < 0.5 nM
IC50 (MM1.S): 6.7 nM
IC50 (MV4-11): 0.9 nM
IC50 (MDA-MB-468): 125 nM
Structure (SMILES): Cc1sc2c(c1C)C(c1ccc(Cl)cc1)=N[C@@H](CC(=O)NCCCCCNc1cccc3c1CN(C1CCC(=O)NC1=O)C3=O)c1nnc(C)n1-2 (some centres undefined)

half-life [7]: 8.8 h
Structure (SMILES): COc1cc(/N=N\c2cccc3c2CN(C2CCC(=O)NC2=O)C3=O)cc(OC)c1OCC(=O)NCCCCNC(=O)C[C@@H]1N=C(c2ccc(Cl)cc2)c2c(sc(C)c2C)-n2c(C)nnc21 (some centres undefined)

IC50 (BXPC-3): 170 nM
Structure (SMILES): CCS(=O)(=O)Nc1ccc(Oc2ccc(F)cc2F)c(-c2cn(C)c(=O)c3[nH]c(C(=O)NCc4cn(CCOCC(=O)Nc5cccc6c5CN(C5CCC(=O)NC5=O)C6=O)nn4)cc23)c1 (centres undefined)

IC50 (BXPC-3): 1220 nM
Structure (SMILES): CCS(=O)(=O)Nc1ccc(Oc2ccc(F)cc2F)c(-c2cn(C)c(=O)c3[nH]ccc23)c1 [MIVEBRESIB]

DC50 [8]: 3600 nM
Emax [9]: 60%
Structure (SMILES): Cc1sc2c(c1C)C(c1ccc(Cl)cc1)=N[C@@H](CC(=O)NCCOCCOCCOCCN1CCOc3cc(N(CCC#N)C(=O)CCl)ccc31)c1nnc(C)n1-2

Activity [11]: 30%
Structure (SMILES): Cc1sc2c(c1C)C(c1ccc(Cl)cc1)=N[C@@H](CC(=O)NCCCCOc1ccc(Oc3ccc(N(Cc4ccccc4)C(=O)CCl)cc3)cc1)c1nnc(C)n1-2

Emax [12]: > 99%
DC50 [13]: 0.03 nM
IC50 (HL-60): 0.03 nM
Structure (SMILES): CCS(=O)(=O)Cc1cc2c(cc1C(=O)NCCCCCCCCCCC(=O)N[C@H](C(=O)N1C[C@@H](O)C[C@H]1C(=O)NCc1ccc(-c3scnc3C)cc1)C(C)(C)C)N(c1ncc(F)cc1F)Cc1c[nH]c3c(=O)n(C)cc-2c13
IC50 (EOL1): 0.02 nM

The remaining lines, values behind:

Structure (SMILES): Cc1sc2c(c1C)C(c1ccc(Cl)cc1)=N[C@@H](CC(=O)NCCOCCOCCOCC(=O)NC(C)C(C)(C)C)c1nnc(C)n1-2 (some centres undefined)
TGI (MCF7 [1]): 59.8%
DC50 [2]: 22 nM
Emax [3]: 13%
IC50 at 48 h [4]: 670 nM
IC50 (MCF7 [5]): 59.8 nM

Structure (SMILES): Cc1sc2c(c1C)C(c1ccc(Cl)cc1)=N[C@@H](CC(=O)NCCOCCOCCOCCOCCN1CCOc3cc(N(CCC#N)C(=O)CCl)ccc31)c1nnc(C)n1-2
DC50 [8]: 1600 nM
Emax [9]: 80%

Structure (SMILES): O=C(CCl)N1CCCc2cc(O)ccc21
Activity [10]: 35%

Structure (SMILES): Cc1ncsc1-c1ccc(CNC(=O)[C@@H]2C[C@@H](O)CN2C(=O)[C@@H](NC(=O)COCC(C)(COCCOCCOCCNC(=O)C[C@@H]2N=C(c3ccc(Cl)cc3)c3c(sc(C)c3C)-n3c(C)nnc32)COCCOCCOCCNC(=O)C[C@@H]2N=C(c3ccc(Cl)cc3)c3c(sc(C)c3C)-n3c(C)nnc32)C(C)(C)C)cc1
EC50 (Caspase-3/Caspase-7): 2 nM

Structure (SMILES): Cc1sc2c(c1C)C(c1ccc(Cl)cc1)=N[C@@H](CC(=O)Nc1ccc(O)cc1)c1nnc(C)n1-2 [BIRABRESIB]
inhibition in vivo at 30 mg/kg (CWR22R): 38%
